Data published in patent US20070043049A1, “Substituted heterocyclic diarylamine analogues” (Neurogen Corporation, priority 2003, published 2007).
pIC50: −log10 of the molar value.

Target: T1, human capsaicin receptor (Homo sapiens, UniProt Q8NER1)
T1 construct: pBK-CMV expression construct encoding the full length human capsaicin receptor; expressed in transfected cells
Assay: Calcium mobilization assay, determination of antagonist activity (Example 6)
Type: cell-based
Details: 50% decrease in fluorescence response of cells expressing human capsaicin receptor exposed to capsaicin
Procedure: A cDNA encoding full length human capsaicin receptor (SEQ ID NO:1, 2 or 3 of U.S. Pat. No. 6,482,611) was subcloned in the plasmid pBK-CMV (Stratagene, La Jolla, Calif.) for recombinant expression in mammalian cells.
Human embryonic kidney (HEK293) cells were transfected with the pBK-CMV expression construct encoding the full length human capsaicin receptor using standard methods. The transfected cells were selected for two weeks in media containing G418 (400 μg/ml) to obtain a pool of stably transfected cells. Independent clones were isolated from this pool by limiting dilution to obtain clonal stable cell lines for use in subsequent experiments.
Cells transfected with expression plasmids (as described in Example 4) and thereby expressing human capsaicin receptor are seeded and grown to 70-90% confluency in FALCON black-walled, clear-bottomed 96-well plates (#3904, BECTON-DICKINSON, Franklin Lakes, N.J.). The culture medium is emptied from the 96 well plates and FLUO-3 AM calcium sensitive dye (Molecular Probes, Eugene, Oreg.) is added to each well (dye solution: 1 mg FLUO-3 AM, 440 μL DMSO and 440 μl 20% pluronic acid in DMSO, diluted 1:250 in Krebs-Ringer HEPES (KRH) buffer (25 mM HEPES, 5 mM KCl, 0.96 mM NaH2PO4, 1 mM MgSO4, 2 mM CaCl2, 5 mM glucose, 1 mM probenecid, pH 7.4), 50 μl diluted solution per well). Plates are covered with aluminum foil and incubated at 37° C. for 1-2 hours in an environment containing 5% CO2. After the incubation, the dye is emptied from the plates, and the cells are washed once with KRH buffer, and resuspended in KRH buffer.
To measure the ability of a test compound to agonize or antagonize a calcium mobilization response in cells expressing capsaicin receptors to capsaicin or other vanilloid agonist, the EC50 of the agonist capsaicin is first determined. An additional 20 μl of KRH buffer and 1 μl DMSO is added to each well of cells, prepared as described above. 100 μl capsaicin in KRH buffer is automatically transferred by the FLIPR instrument to each well. Capsaicin-induced calcium mobilization is monitored using either FLUOROSKAN ASCENT (Labsystems; Franklin, Mass.) or FLIPR (fluorometric imaging plate reader system; Molecular Devices, Sunnyvale, Calif.) instruments. Data obtained between 30 and 60 seconds after agonist application are used to generate an 8-point concentration response curve, with final capsaicin concentrations of 1 nM to 3 μM. KALEIDAGRAPH software (Synergy Software, Reading, Pa.) is used to fit the data to the equation: y=a*(1/(1+(b/x)^c)) to determine the 50% excitatory concentration (EC50) for the response. In this equation, y is the maximum fluorescence signal, x is the concentration of the agonist or antagonist (in this case, capsaicin), a is the Emax, b corresponds to the EC50 value and c is the Hill coefficient. Determination of Agonist Activity
Test compounds are dissolved in DMSO, diluted in 20 μl KRH buffer so that the final concentration of test compounds in the assay well is between 1 μM and 5 μM, and added to cells prepared as described above. The 96 well plates containing prepared cells and test compounds are incubated in the dark, at room temperature for 0.5 to 6 hours. It is important that the incubation not continue beyond 6 hours. Just prior to determining the fluorescence response, 100 μl capsaicin in KRH buffer at twice the EC50 concentration determined as described above is automatically added by the FLIPR instrument to each well of the 96 well plate for a final sample volume of 200 μl and a final capsaicin concentration equal to the EC50. The final concentration of test compounds in the assay wells is between 1 μM and […]. […] The concentration of antagonist required to provide a 50% decrease, relative to the response observed in the presence of capsaicin and without antagonist, is the IC50 for the antagonist, and is preferably below 1 micromolar, 100 nanomolar, 10 nanomolar or 1 nanomolar.

T1 sequence (Q8NER1 whole entry): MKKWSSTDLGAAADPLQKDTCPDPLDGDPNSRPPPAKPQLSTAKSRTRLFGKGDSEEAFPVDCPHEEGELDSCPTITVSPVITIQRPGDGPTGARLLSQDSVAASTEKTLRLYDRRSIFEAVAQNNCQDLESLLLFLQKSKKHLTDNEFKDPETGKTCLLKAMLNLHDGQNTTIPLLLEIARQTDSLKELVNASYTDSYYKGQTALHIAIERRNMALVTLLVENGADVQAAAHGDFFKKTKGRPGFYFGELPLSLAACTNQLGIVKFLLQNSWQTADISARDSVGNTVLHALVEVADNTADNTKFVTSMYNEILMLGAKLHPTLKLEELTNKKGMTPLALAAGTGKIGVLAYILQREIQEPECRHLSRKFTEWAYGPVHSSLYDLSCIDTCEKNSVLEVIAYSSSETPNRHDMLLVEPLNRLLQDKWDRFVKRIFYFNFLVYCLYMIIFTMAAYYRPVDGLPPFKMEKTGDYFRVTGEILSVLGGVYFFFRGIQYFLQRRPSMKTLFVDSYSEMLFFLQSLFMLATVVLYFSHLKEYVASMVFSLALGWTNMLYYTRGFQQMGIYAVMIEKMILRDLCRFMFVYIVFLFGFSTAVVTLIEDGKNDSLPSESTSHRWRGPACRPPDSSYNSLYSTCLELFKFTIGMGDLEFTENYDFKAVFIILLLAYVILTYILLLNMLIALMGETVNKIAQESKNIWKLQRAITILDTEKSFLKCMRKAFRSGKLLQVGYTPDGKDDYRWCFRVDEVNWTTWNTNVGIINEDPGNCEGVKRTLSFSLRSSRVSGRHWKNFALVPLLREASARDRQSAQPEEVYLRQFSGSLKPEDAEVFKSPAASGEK

Structure (SMILES) | pIC50
CC(C)N(C)c1nc(Nc2ccc(C(F)(F)F)cc2)nc(N2CCN(c3ncccc3C(F)(F)F)CC2)n1 [Compound 47, N-Isopropyl-N-methyl-N′-(4-trifluoromethyl-phenyl)-6-[4-(3-trifluoromethyl-pyridin-2-yl)-piperazin-1-yl]-[1,3,5]triazine-2,4-diamine] | ≥ 6.00
CCCN(C)c1nc(Nc2ccc(C(F)(F)F)cc2)nc(N2CCN(c3ncccc3C(F)(F)F)CC2)n1 [Compound 48, N-Methyl-N-propyl-N′-(4-trifluoromethyl-phenyl)-6-[4-(3-trifluoromethyl-pyridin-2-yl)-piperazin-1-yl]-[1,3,5]triazine-2,4-diamine] | ≥ 6.00
CC(C)N(C)c1nc(Nc2ccc(C(F)(F)F)cc2)nc(N2CCN(c3ncccc3Cl)CC2)n1 [Compound 49, 6-[4-(3-Chloro-pyridin-2-yl)-piperazin-1-yl]-N-isopropyl-N-methyl-N′-(4-trifluoromethyl-phenyl)-[1,3,5]triazine-2,4-diamine] | ≥ 6.00
CCN(c1nc(Nc2ccc(C(F)(F)F)cc2)nc(N2CCN(c3ncccc3Cl)CC2)n1)C(C)C [Compound 50, 6-[4-(3-Chloro-pyridin-2-yl)-piperazin-1-yl]-N-ethyl-N-isopropyl-N′-(4-trifluoromethyl-phenyl)-[1,3,5]triazine-2,4-diamine] | ≥ 6.00
CN(C)c1nc(Nc2ccccc2)nc(N2CCN(c3ncccc3C(F)(F)F)CC2)n1 [Compound 51, N,N-Dimethyl-N′-phenyl-6-[4-(3-trifluoromethyl-pyridin-2-yl)-piperazin-1-yl]-[1,3,5]triazine-2,4-diamine] | ≥ 6.00
FC(F)(F)c1ccc(Nc2nc(N3CCCCC3)nc(N3CCN(c4ncccc4Cl)CC3)n2)cc1 [Compound 52, {4-[4-(3-Chloro-pyridin-2-yl)-piperazin-1-yl]-6-piperidin-1-yl-[1,3,5]triazin-2-yl}-(4-trifluoromethyl-phenyl)-amine] | ≥ 6.00
C[C@H]1CN(c2ncccc2Cl)CCN1c1nc(Nc2ccc(C(F)(F)F)cc2)nc(N(C)C)n1 [Compound 53, 6-[4-(3-Chloro-pyridin-2-yl)-2-methyl-piperazin-1-yl]-N,N-dimethyl-N′-(4-trifluoromethyl-phenyl)-[1,3,5]triazine-2,4-diamine (S)] | ≥ 6.00
CC(C)N(C)c1nc(Nc2ccccc2)nc(N2CCN(c3ncccc3Cl)CC2)n1 [Compound 54, 6-[4-(3-Chloro-pyridin-2-yl)-piperazin-1-yl]-N-isopropyl-N-methyl-N′-phenyl-[1,3,5]triazine-2,4-diamine] | ≥ 6.00
CC(C)N(C)c1nc(Nc2ccccc2)nc(N2CCN(c3ncccc3C(F)(F)F)CC2)n1 [Compound 55, N-Isopropyl-N-methyl-N′-phenyl-6-[4-(3-trifluoromethyl-pyridin-2-yl)-piperazin-1-yl]-[1,3,5]triazine-2,4-diamine] | ≥ 6.00
FC(F)(F)c1ccc(Nc2nc(N3CCN(c4ncccc4Cl)CC3)nc(N3CCN(c4ncccc4Cl)CC3)n2)cc1 [Compound 56, {4,6-Bis-[4-(3-chloro-pyridin-2-yl)-piperazin-1-yl]-[1,3,5]triazin-2-yl}-(4-trifluoromethyl-phenyl)-amine] | ≥ 6.00
FC(F)(F)c1cccnc1N1CCN(c2nc(Nc3ccccc3)cc(N3CCCCC3)n2)CC1 [Compound 57, Phenyl-{6-piperidin-1-yl-2-[4-(3-trifluoromethyl-pyridin-2-yl)-piperazin-1-yl]-pyrimidin-4-yl}-amine] | ≥ 6.00
Fc1cccc(Nc2nc(N3CCOCC3)nc(N3CCN(c4ncccc4C(F)(F)F)CC3)n2)c1 [Compound 58, (3-Fluoro-phenyl)-{4-morpholin-4-yl-6-[4-(3-trifluoromethyl-pyridin-2-yl)-piperazin-1-yl]-[1,3,5]triazin-2-yl}-amine] | ≥ 6.00
Fc1ccc(Nc2nc(N3CCOCC3)nc(N3CCN(c4ncccc4C(F)(F)F)CC3)n2)cc1 [Compound 59, (4-Fluoro-phenyl)-{4-morpholin-4-yl-6-[4-(3-trifluoromethyl-pyridin-2-yl)-piperazin-1-yl]-[1,3,5]triazin-2-yl}-amine] | ≥ 6.00
Fc1cccc(Nc2nc(N3CCOCC3)nc(N3CCN(c4ncccc4Cl)CC3)n2)c1 [Compound 60, {4-[4-(3-Chloro-pyridin-2-yl)-piperazin-1-yl]-6-morpholin-4-yl-[1,3,5]triazin-2-yl}-(3-fluoro-phenyl)-amine] | ≥ 6.00
Fc1ccc(Nc2nc(N3CCOCC3)nc(N3CCN(c4ncccc4Cl)CC3)n2)cc1 [Compound 61, {4-[4-(3-Chloro-pyridin-2-yl)-piperazin-1-yl]-6-morpholin-4-yl-[1,3,5]triazin-2-yl}-(4-fluoro-phenyl)-amine] | ≥ 6.00
Clc1ccc(Nc2nc(N3CCOCC3)nc(N3CCN(c4ncccc4Cl)CC3)n2)cc1 [Compound 62, (4-Chloro-phenyl)-{4-[4-(3-chloro-pyridin-2-yl)-piperazin-1-yl]-6-morpholin-4-yl-[1,3,5]triazin-2-yl}-amine] | ≥ 6.00
FC(F)(F)c1cccnc1N1CCN(c2nc(Nc3ccc(Cl)cc3)nc(N3CCOCC3)n2)CC1 [Compound 63, (4-Chloro-phenyl)-{4-morpholin-4-yl-6-[4-(3-trifluoromethyl-pyridin-2-yl)-piperazin-1-yl]-[1,3,5]triazin-2-yl}-amine] | ≥ 6.00
Cc1ccc(Nc2nc(N3CCOCC3)nc(N3CCN(c4ncccc4C(F)(F)F)CC3)n2)cc1 [Compound 64, {4-Morpholin-4-yl-6-[4-(3-trifluoromethyl-pyridin-2-yl)-piperazin-1-yl]-[1,3,5]triazin-2-yl}-p-tolyl-amine] | ≥ 6.00
Cc1ccc(Nc2nc(N3CCOCC3)nc(N3CCN(c4ncccc4Cl)CC3)n2)cc1 [Compound 65, {4-[4-(3-Chloro-pyridin-2-yl)-piperazin-1-yl]-6-morpholin-4-yl-[1,3,5]triazin-2-yl}-p-tolyl-amine] | ≥ 6.00
Clc1cccc(Nc2nc(N3CCOCC3)nc(N3CCN(c4ncccc4Cl)CC3)n2)c1 [Compound 66, (3-Chloro-phenyl)-{4-[4-(3-chloro-pyridin-2-yl)-piperazin-1-yl]-6-morpholin-4-yl-[1,3,5]triazin-2-yl}-amine] | ≥ 6.00
FC(F)(F)c1cccnc1N1CCN(c2nc(Nc3cccc(Cl)c3)nc(N3CCOCC3)n2)CC1 [Compound 67, (3-Chloro-phenyl)-{4-morpholin-4-yl-6-[4-(3-trifluoromethyl-pyridin-2-yl)-piperazin-1-yl]-[1,3,5]triazin-2-yl}-amine] | ≥ 6.00
Fc1ccc(Nc2nc(N3CCOCC3)nc(N3CCN(c4ncccc4Cl)CC3)n2)cc1F [Compound 68, {4-[4-(3-Chloro-pyridin-2-yl)-piperazin-1-yl]-6-morpholin-4-yl-[1,3,5]triazin-2-yl}-(3,4-difluoro-phenyl)-amine] | ≥ 6.00
Fc1ccc(Nc2nc(N3CCOCC3)nc(N3CCN(c4ncccc4C(F)(F)F)CC3)n2)cc1F [Compound 69, (3,4-Difluoro-phenyl)-{4-morpholin-4-yl-6-[4-(3-trifluoromethyl-pyridin-2-yl)-piperazin-1-yl]-[1,3,5]triazin-2-yl}-amine] | ≥ 6.00
Fc1cccc(Nc2nc(N3CCCCC3)nc(N3CCN(c4ncccc4Cl)CC3)n2)c1 [Compound 70, {4-[4-(3-Chloro-pyridin-2-yl)-piperazin-1-yl]-6-piperidin-1-yl-[1,3,5]triazin-2-yl}-(3-fluoro-phenyl)-amine] | ≥ 6.00
